Measurements reported in US4352802A, “Bicyclo[3.3.1]nonyl-benzamide” (Beecham Group Limited, priority 1980, dated 1982).

Tests used:
Assay type in all cases: in vivo
Dopamine Receptor [1] = assay: Inhibition of apomorphine induced climbing in the mouse (dopamine receptor blocking activity in the central nervous system); details: p.o., apomorphine 1 mg/kg s.c., not necessarily the lowest active dose
Method: II. Dopamine Receptor Blocking Activity in the Central Nervous System
Compounds were tested for inhibition of apomorphine induced climbing in the mouse. The test is based on that described by Protais, P., Constantin, J. and Schwartz J. C. (1976), Psychopharmacology, 50, 1-6.
Apomorphine 1 mg/kg s.c. induces mice to climb the wall of a wire cage (inverted food hopper-11×7.5×18 cm high). Mice acclimatised in their home cages in groups of 5 are placed under the hoppers immediately after the injection of apomorphine 1 mg/kg s.c. At 10,20 and 30 minutes after injection climbing behaviour is scored. The mice are observed for 30 seconds and scored according to the position they spend the majority of time in, score 0--four paws on floor of cage; score 1--[…]; score 2--all paws on wall of cage. The scores at all 3 times and for each mouse are summed and mice drug treated orally compared to mice receiving apomorphine only. A saline only treated group is also included and any score, generally <5% of maximum taken into account.

[2] = tested on: vomiting response to apomorphine HCl; assay: Anti-emetic activity in the dog (apomorphine-induced vomiting); details: Canis lupus familiaris, sc, 30 minutes prior to apomorphine HCl 0.1 mg/kg s.c.
Method: I. Anti-emetic activity in the dog
Compounds were administered subcutaneously 30 minutes prior to administration of a standard dose of apomorphine HCl (0.1 mg/kg subcutaneously) and the vomiting response compared to that obtained when the same animals were dosed with apomorphine HCl and vehicle only.

[3] = tested on: inhibitory effect of 6,7-ADTN on gastric motility; assay: Gastric motility testing in the rat (reversal of 6,7-ADTN inhibition); details: conscious chronic gastric fistula rat, 1 mg/kg s.c., 10 minutes after 6,7-ADTN 1 mg/kg s.c.
Method: III. Gastric Motility Testing in the rat
The compounds were tested for ability to reverse the inhibitory effect of 6,7-ADTN on gastric motility as recorded by an open tipped catheter in the conscious chronic gastric fistula rat. Administration of 1 mg/kg s.c. of 6,7-ADTN reduced basal gastric motor activity and this was reversed by the administration of the compound administered 10 minutes after the 6,7-ADTN. […] For subcutaneous testing the compound was dissolved in water by the addition of tartaric acid (1/2 mole per mole of compound).

Dopamine Receptor [4] = assay: Inhibition of apomorphine induced climbing in the mouse (dopamine receptor blocking activity in the central nervous system); details: s.c., apomorphine 1 mg/kg s.c., not necessarily the lowest active dose

Row | SMILES | Active Dose (inhibition of apomorphine induced climbing) (Dopamine Receptor [1]) | other results
1 | CCCCCCN1[C@@H]2COC[C@H]1C[C@H](NC(=O)c1cc(Cl)c(N)cc1OC)C2 [Compound 23, 2-Methoxy-5-chloro-4-amino[N-(9-(n-hexyl)-9-aza-3-oxabicyclo(3,3,1)nonan-7β-yl)]benzamide] | 10 mg/kg | 
2 | COc1ccc(S(C)(=O)=O)cc1C(=O)N[C@@H]1C[C@H]2CSC[C@@H](C1)N2Cc1ccccc1 [Compound 5, 2-Methoxy-5-methylsulphonyl-N-[9-benzyl-9-aza-3-thiabicyclo (3,3,1)nonan-7β-yl]benzamide] |  | ED50 [2]: 0.1 mg/kg; Reversal of the action of 6,7-ADTN on gastric motility [3]: reversed the action of 6,7-ADTN; Active Dose (inhibition of apomorphine induced climbing) (Dopamine Receptor [4]): 50 mg/kg
3 | COc1cc(N)c(Cl)cc1C(=O)N[C@@H]1C[C@H]2COC[C@@H](C1)N2CCC(C)C [Compound 25, 2-Methoxy-5-chloro-4-amino-[N-(9-(3-methylbutyl)-9-aza-3-oxabicyclo(3,3,1)nonan-7β-yl)]benzamide] | 10 mg/kg | 
4 | COc1ccc(CN2[C@@H]3COC[C@H]2C[C@H](NC(=O)c2cc(Cl)c(N)cc2OC)C3)cc1 [Compound 19, 2-Methoxy-5-chloro-4-amino-[N-(9-(4-methoxybenzyl)9-aza-3-oxabicyclo(3,3,1)nonan-7β-yl)]benzamide] | 10 mg/kg | 
5 | COc1cc(N)c(Cl)cc1C(=O)N[C@@H]1C[C@H]2COC[C@@H](C1)N2Cc1cccs1 [Compound 24, 2-Methoxy-5-chloro-4-amino-[N-(9-(2-thenyl)-9-aza-3-oxabicyclo(3,3,1)nonan-7β-yl)]benzamide] | 10 mg/kg | 
6 | COc1cc(N)c(Cl)cc1C(=O)N[C@@H]1C[C@H]2COC[C@@H](C1)N2Cc1ccc(Cl)c(Cl)c1 [Compound 20, 2-Methoxy-5-chloro-4-amino-[N-(9-(3,4-dichlorobenzyl)-9-aza-3-oxabicyclo(3,3,1)nonan-7β-yl)]benzamide] | 10 mg/kg | 
7 | COc1cc(N)c(Cl)cc1C(=O)N[C@@H]1C[C@H]2COC[C@@H](C1)N2Cc1ccccc1 [Compound 2, 2-Methoxy-5-chloro-4-amino-N-[9-benzyl-9-aza-3-oxabicyclo(3,3,1)nonan-7β-yl]-benzamide] | 1 mg/kg | ED50 [2]: 0.005 mg/kg; Reversal of the action of 6,7-ADTN on gastric motility [3]: reversed the action of 6,7-ADTN
8 | COc1cccc(C(=O)N[C@@H]2C[C@H]3COC[C@@H](C2)N3Cc2ccccc2)c1OC [Compound 6, 2,3-Dimethoxyj-[N-(9-benzyl-9-aza-3-oxabicyclo(3,3,1)nonan-7β-yl)]benzamide] | 2 mg/kg | 
9 | COc1cc(NC(C)=O)c(Cl)cc1C(=O)N[C@@H]1C[C@H]2COC[C@@H](C1)N2Cc1ccccc1 [Compound 1, 2-Methoxy-5-chloro-4-acetamido-N-[9-benzyl-9-aza-3-oxabicyclo(3,3,1)nonan-7β-yl]-benzamide] | 2 mg/kg | 
10 | COc1cc(N)c(Cl)cc1C(=O)N[C@@H]1C[C@H]2COC[C@@H](C1)N2Cc1ccc(Cl)cc1 [Compound 18, 2-Methoxy-5-chloro-4-amino-[N-(9-(4-chlorobenzyl)-9-aza-3-oxabicyclo(3,3,1)nonan-7β-yl)]benzamide] | 10 mg/kg | 
11 | COc1cc(N)c(Cl)cc1C(=O)N[C@@H]1C[C@H]2COC[C@@H](C1)N2Cc1ccc(C)cc1 [Compound 22, 2-Methoxy-5-chloro-4-amino-[N-(9-(4-methylbenzyl)-9-aza-3-oxabicyclo(3,3,1)nonan-7β-yl)]benzamide] | 10 mg/kg | 
12 | COc1cc(N)c(Cl)cc1C(=O)N[C@@H]1C[C@H]2COC[C@@H](C1)N2Cc1cccc(C(F)(F)F)c1 [Compound 21, 2-Methoxy-5-chloro-4-amino-[N-(9-(3-trifluoromethylbenzyl)-9-aza-3-oxabicyclo(3,3,1)nonan-7β-yl)]benzamide] | 50 mg/kg | 
13 | COc1cc(N)c(Cl)cc1C(=O)N[C@@H]1C[C@H]2COC[C@@H](C1)N2CC1CCCCC1 [Compound 26] | 10 mg/kg | 
